Results as given in US10421774B2 (priority 2016, dated 2019).

Key:
Assay in all cases: microbe, parasite or virus in culture
Format in all cases: cell-based, HIV-1
[1] = tested on: NLRepRlucP373S recombinant wild type (WT) virus; conditions: Human immunodeficiency virus 1, MT2, read-out: WT EC50
Method: (§1) Cells. MT-2 cells and 293T cells were obtained from the NIH AIDS Research and Reference Reagent Program. Cell lines were sub-cultured twice a week in either RPMI 1640 (MT-2) or DMEM (293T, HeLa) media supplemented with 10% heat inactivated fetal bovine serum (FBS), 100 units/mL of penicillin G and 100 μg/mL of streptomycin. The DMEM medium was additionally supplemented with 10 mM HEPES buffer, pH 7.55, 2 mM L-glutamine and 0.25 μg/mL of amphotericin B.
(§2) Viruses. NLRepRluc virus contains the Renilla luciferase marker in place of the viral nef gene. The proviral plasmid pNLRepRluc was constructed at Bristol-Myers Squibb, starting from a proviral NL4-3 clone (B subtype) that was obtained from the NIH AIDS Research and Reference Reagent Program. The parental recombinant wild type (WT) virus (NLRepRlucP373S) was derived from NLRepRluc and contains the additional substitution of P373 for serine in Gag (within the SP1 spacer), the most common 373 variation in subtype B. Other recombinant viruses (A364V, V370A/ΔT371 and the “T3325 triple” (T332S/V362I+HIV-1 protease R41G)) were generated by site-directed mutagenesis of plasmid pNLRepRlucP373S to introduce those amino acid substitutions in Gag and protease. Recombinant virus DNA was then used to generate virus stocks by transfection of 293T cells (Lipofectamine PLUS kit, Invitrogen). Titers of virus stocks were determined using a luciferase assay (Dual-Luciferase® Reporter Assay System, Promega, Milwaukee, Wis., USA) endpoint.
(§3) Multiple cycle drug susceptibility assay. Pellets of MT-2 cells were infected with NLRepRlucP373S Gag site-directed viruses, where initial inocula of the reporter strains were normalized using equivalent endpoint luciferase activity signals. Such cell-virus mixtures were resuspended in medium, incubated for 1-hour at 37° C./CO2, and added to compound containing 96-well plates at a final cell density of 10,000 cells per well. The test compounds were 3-fold serially diluted in 100% DMSO, and assayed at a final DMSO concentration of 1%. After 4-5 day incubation at 37° C./CO2, virus yields were determined by Renilla luciferase activity (Dual-Luciferase® Reporter Assay System, Promega). The endpoint luminescence was detected on a Wallac Trilux (PerkinElmer).
(§4) The 50% inhibitory concentrations (EC50S) were calculated by using the exponential form of the median effect equation where Percent Inhibition=1/[1+(EC50/drug conc.^m], where m is a parameter that reflects the slope of the concentration-response curve. Background was taken as the residual signal observed upon inhibition at the highest concentration of a control protease inhibitor, NFV (3 μM).
as §4, with “The 90%” for “The 50%”, “concentrations (EC90S)” for “concentrations (EC50S)”, “where ECF=[(F/(100−F)]^1/H·EC50,” for “where Percent Inhibition=1/[1+(EC50/drug conc.^m],”, “where H” for “where m”

[2] = tested on: A364V site directed mutant virus; conditions: Human immunodeficiency virus 1, MT2, read-out: A364V EC50
Method: as §1, §2, §3
(§5) HIV-1 NL4-3 expressing Renilla luciferase gene was converted to the gag V370A/ΔT371 virus by site directed mutagenesis. A364V is a site directed mutant.
(§6) All three recombinant viruses were used as described above in the HIV cell culture assay for the NL4-3 virus.

[3] = tested on: gag V370A/ΔT371 virus; conditions: Human immunodeficiency virus 1, MT2, read-out: V370A/ΔT371 EC50
Method: as §1, §2, §3, §5, §6

[4] = tested on: T332S/V362I/Pr R41G virus; conditions: Human immunodeficiency virus 1, MT2, read-out: T332S/V362I/pr41G EC50
Method: as §1, §2, §3
T332sN362I/Pr R41G (N14.3, B Clade) virus′ was obtained as follows: Selection for resistance of HIV-1 strain […] virus with the HIV maturation inhibitor (MI) compound
At passage 8 virus was harvested and sequenced.
as §6

SMILES	EC50 [1]	EC50 [2]	EC50 [3]	EC50 [4]
C=C(C)[C@@H]1CC[C@]2(NCCN3CCS(=O)(=O)CC3)CC[C@]3(C)[C@H](CC[C@@H]4[C@@]5(C)CC=C(C6=CC[C@@](COc7ncccc7C(N)=O)(C(=O)O)CC6)C(C)(C)[C@@H]5CC[C@]43C)[C@@H]12 [Example 26, (S)-1-(((3-carbamoylpyridin-2-yl)oxy)methyl)-4-((1R,3aS,5aR,5bR,7aR,11aS,11bR,13aR,13bR)-3a-((2-(1,1-dioxidothiomorpholino)ethyl)amino)-5a,5b,8,8,11a-pentamethyl-1-(prop-1-en-2-yl)-2,3,3a,4,5,5a,5b,6,7,7a,8,11,11a,11b,12,13,13a,13b-octadecahydro-1H-cyclopenta[a]chrysen-9-yl)cyclohex-3-ene-1-carboxylic acid]	5 nM	28 nM	41 nM	41 nM
C=C(C)[C@@H]1CC[C@]2(NCCN3CCS(=O)(=O)CC3)CC[C@]3(C)[C@H](CC[C@@H]4[C@@]5(C)CC=C(C6=CC[C@](COc7ccccn7)(C(=O)O)CC6)C(C)(C)[C@@H]5CC[C@]43C)[C@@H]12 [Example 20, (R)-4-((1R,3aS,5aR,5bR,7aR,11aS,11bR,13aR,13bR)-3a-((2-(1,1-dioxidothiomorpholino)ethyl)amino)-5a,5b,8,8,11a-pentamethyl-1-(prop-1-en-2-yl)-2,3,3a,4,5,5a,5b,6,7,7a,8,11,11a,11b,12,13,13a,13b-octadecahydro-1H-cyclopenta[a]chrysen-9-yl)-1-((pyridin-2-yloxy)methyl)cyclohex-3-ene-1-carboxylic acid]	< 50 nM	< 50 nM	< 50 nM	< 50 nM
C=C(C)[C@@H]1CC[C@]2(NCCN3CCS(=O)(=O)CC3)CC[C@]3(C)[C@H](CC[C@@H]4[C@@]5(C)CC=C(C6=CCC(COc7cc(C)sn7)(C(=O)O)CC6)C(C)(C)[C@@H]5CC[C@]43C)[C@@H]12 (stereo partly drawn) [Example 12]	< 50 nM	< 50 nM	< 50 nM	< 50 nM
C=C(C)[C@@H]1CC[C@]2(NCCN3CCS(=O)(=O)CC3)CC[C@]3(C)[C@H](CC[C@@H]4[C@@]5(C)CC=C(C6=CCC(COc7ncccc7C#N)(C(=O)O)CC6)C(C)(C)[C@@H]5CC[C@]43C)[C@@H]12 (stereo partly drawn) [Example 36, 1-(((3-cyanopyridin-2-yl)oxy)methyl)-4-((1R,3aS,5aR,5bR,7aR,11aS,11bR,13aR,13bR)-3a-((2-(1,1-dioxidothiomorpholino)ethyl)amino)-5a,5b,8,8,11a-pentamethyl-1-(prop-1-en-2-yl)-2,3,3a,4,5,5a,5b,6,7,7a,8,11,11a,11b,12,13,13a,13b-octadecahydro-1H-cyclopenta[a]chrysen-9-yl)cyclohex-3-ene-1-carboxylic acid]	3 nM	5 nM	11 nM	11 nM
C=C(C)[C@@H]1CC[C@]2(NCCN3CCS(=O)(=O)CC3)CC[C@]3(C)[C@H](CC[C@@H]4[C@@]5(C)CC=C(C6=CCC(COc7cnnn7-c7ccccc7)(C(=O)O)CC6)C(C)(C)[C@@H]5CC[C@]43C)[C@@H]12 (stereo partly drawn) [Example 16]	5 nM	32 nM	30 nM	30 nM
C=C(C)[C@@H]1CC[C@]2(NCCN3CCS(=O)(=O)CC3)CC[C@]3(C)[C@H](CC[C@@H]4[C@@]5(C)CC=C(C6=CCC(COc7cnsn7)(C(=O)O)CC6)C(C)(C)[C@@H]5CC[C@]43C)[C@@H]12 (stereo partly drawn) [Example 6, 1-(((1,2,5-thiadiazol-3-yl)oxy)methyl)-4-((1R,3aS,5aR,5bR,7aR,11aS,11bR,13aR,13bR)-3a-((2-(1,1-dioxidothiomorpholino)ethyl)amino)-5a,5b,8,8,11a-pentamethyl-1-(prop-1-en-2-yl)-2,3,3a,4,5,5a,5b,6,7,7a,8,11,11a,11b,12,13,13a,13b-octadecahydro-1H-cyclopenta[a]chrysen-9-yl)cyclohex-3-ene-1-carboxylic acid]	< 50 nM	> 50 nM	< 50 nM	< 50 nM
